Reference: US6358885B1, “Substituted phenylheterocyclic herbicides” (Mississippi State University, priority 1992, dated 2002)

How the values were obtained:
Test in all cases: Test B preemergence/postemergence greenhouse plant response rating 0 to 10
barley = assay type: in vivo, Hordeum vulgare; details: for Plant response rating, Barley: 0 to 10 scale
Source text: (§1) Seeds of barley (Hordeum vulgare), barnyardgrass (Echinochloa crus-galli), bedstraw (Galium aparine), blackgrass (Alopecurus myosuroides), […] (Bromus secalinus), chickweed (Stellaria media), cocklebur (Xanthium pensylvanicum), corn (Zea mays), cotton (Gossypium hirsutum), crabgrass (Digitaria spp.), giant foxtail (Setaria faberii), lambsquarters (Chenopodium album), morningglory (Ipomoea hederacea), rape (Brassica napus), rice (Oryza sativa), sorghum (Sorghum bicolor), soybean (Glycine max), sugar beet (Beta vulgaris), velvetleaf (Abutilon theophrasti), wheat (Triticum aestivum), wild buckwheat (Polygonum convolvulus), and wild oat (Avena fatua) and purple nutsedge. (Cyperus rotundus) tubers were planted and treated preemergence with test chemicals dissolved in a non-phytotoxic solvent. At the same time, these crop and weed species were also treated with postemergence applications of test chemicals. Plants ranged in height from two to eighteen cm (one to four leaf stage) for postemergence treatments. Treated plants and controls were maintained in a greenhouse for twelve to sixteen days, after which all species were compared to controls and visually evaluated. […] A dash (-) response means no test result.

barnyardgrass = assay type: in vivo, Echinochloa crus-galli; details: for Plant response rating, Barnyardgrass: 0 to 10 scale
Source text: as §1

bedstraw = assay type: in vivo, Galium aparine; details: for Plant response rating, Bedstraw: 0 to 10 scale
Source text: as §1

blackgrass = assay type: in vivo, Alopecurus myosuroides; details: for Plant response rating, Blackgrass: 0 to 10 scale
Source text: as §1

cheatgrass = assay type: in vivo, Bromus secalinus; details: for Plant response rating, Cheatgrass: 0 to 10 scale
Source text: as §1

chickweed = assay type: in vivo, Stellaria media; details: for Plant response rating, Chickweed: 0 to 10 scale
Source text: as §1

cocklebur = assay type: in vivo, Xanthium pensylvanicum; details: for Plant response rating, Cocklebur: 0 to 10 scale
Source text: as §1

corn = assay type: in vivo, Zea mays; details: for Plant response rating, Corn: 0 to 10 scale
Source text: as §1

cotton = assay type: in vivo, Gossypium hirsutum; details: for Plant response rating, Cotton: 0 to 10 scale
Source text: as §1

crabgrass = assay type: in vivo, Digitaria spp.; details: for Plant response rating, Crabgrass: 0 to 10 scale
Source text: as §1

giant foxtail = assay type: in vivo, Setaria faberii; details: for Plant response rating, Giant foxtail: 0 to 10 scale
Source text: as §1

lambsquarters = assay type: in vivo, Chenopodium album; details: for Plant response rating, Lambsquarter: 0 to 10 scale
Source text: as §1

morningglory = assay type: in vivo, Ipomoea hederacea; details: for Plant response rating, Morningglory: 0 to 10 scale
Source text: as §1

rape = assay type: in vivo, Brassica napus; details: for Plant response rating, Rape: 0 to 10 scale
Source text: as §1

rice = assay type: in vivo, Oryza sativa; details: for Plant response rating, Rice: 0 to 10 scale
Source text: as §1

sorghum = assay type: in vivo, Sorghum bicolor; details: for Plant response rating, Sorghum: 0 to 10 scale
Source text: as §1

soybean = assay type: in vivo, Glycine max; details: for Plant response rating, Soybean: 0 to 10 scale
Source text: as §1

sugar beet = assay type: in vivo, Beta vulgaris; details: for Plant response rating, Sugar beet: 0 to 10 scale
Source text: as §1

velvetleaf = assay type: in vivo, Abutilon theophrasti; details: for Plant response rating, Velvetleaf: 0 to 10 scale
Source text: as §1

wheat = assay type: in vivo, Triticum aestivum; details: for Plant response rating, Wheat: 0 to 10 scale
Source text: as §1

wild buckwheat = assay type: in vivo, Polygonum convolvulus; details: for Plant response rating, Wild buckwheat: 0 to 10 scale
Source text: as §1

wild oat = assay type: in vivo, Avena fatua; details: for Plant response rating, Wild oat: 0 to 10 scale
Source text: as §1

purple nutsedge = assay type: in vivo, Cyperus rotundus; details: for Plant response rating, Nutsedge: 0 to 10 scale
Source text: as §1

With `C#CC(C)Oc1cc(-c2nn3c(c2Cl)CCCC3)c(Cl)cc1Cl` (centres unmarked) [Compound 74] the “Plant response rating, Barley” value (barley; POSTEMERGENCE, Rate 50 g/ha) was 2, the “Plant response rating, Barley” value (barley; PREEMERGENCE, Rate 50 g/ha) was 0 and the “Plant response rating (0 to 10 scale), Barley” value (barley; PREEMERGENCE, Rate 200 g/ha) was 0. The “Plant response rating, Barley” value (barley; Rate 200 g/ha, POSTEMERGENCE) was 4, the “Plant response rating, Barnyardgrass” value (barnyardgrass; POSTEMERGENCE, Rate 50 g/ha) was 5 and the “Plant response rating, Barnyardgrass” value (barnyardgrass; PREEMERGENCE, Rate 50 g/ha) was 0. For the same compound, the “Plant response rating (0 to 10 scale), Barnyardgrass” value (barnyardgrass; PREEMERGENCE, Rate 200 g/ha) was 1, the “Plant response rating, Barnyardgrass” value (barnyardgrass; Rate 200 g/ha, POSTEMERGENCE) was 7 and the “Plant response rating, Bedstraw” value (bedstraw; POSTEMERGENCE, Rate 50 g/ha) was 8. For the same compound, the “Plant response rating, Bedstraw” value (bedstraw; PREEMERGENCE, Rate 50 g/ha) was 0, the “Plant response rating (0 to 10 scale), Bedstraw” value (bedstraw; PREEMERGENCE, Rate 200 g/ha) was 9 and the “Plant response rating, Bedstraw” value (bedstraw; Rate 200 g/ha, POSTEMERGENCE) was 9. For the same compound, the “Plant response rating, Blackgrass” value (blackgrass; POSTEMERGENCE, Rate 50 g/ha) was 6, the “Plant response rating, Blackgrass” value (blackgrass; PREEMERGENCE, Rate 50 g/ha) was 0 and the “Plant response rating (0 to 10 scale), Blackgrass” value (blackgrass; PREEMERGENCE, Rate 200 g/ha) was 8. For the same compound, the “Plant response rating, Blackgrass” value (blackgrass; Rate 200 g/ha, POSTEMERGENCE) was 6, the “Plant response rating, Cheatgrass” value (cheatgrass; POSTEMERGENCE, Rate 50 g/ha) was 6 and the “Plant response rating, Cheatgrass” value (cheatgrass; PREEMERGENCE, Rate 50 g/ha) was 4. The “Plant response rating (0 to 10 scale), Cheatgrass” value (cheatgrass; PREEMERGENCE, Rate 200 g/ha) was 4, the “Plant response rating, Cheatgrass” value (cheatgrass; Rate 200 g/ha, POSTEMERGENCE) was 6 and the “Plant response rating, Chickweed” value (chickweed; POSTEMERGENCE, Rate 50 g/ha) was 6. For the same compound, the “Plant response rating, Chickweed” value (chickweed; PREEMERGENCE, Rate 50 g/ha) was 0, the “Plant response rating (0 to 10 scale), Chickweed” value (chickweed; PREEMERGENCE, Rate 200 g/ha) was 5 and the “Plant response rating, Chickweed” value (chickweed; Rate 200 g/ha, POSTEMERGENCE) was 7. For the same compound, the “Plant response rating, Cocklebur” value (cocklebur; POSTEMERGENCE, Rate 50 g/ha) was 9, the “Plant response rating, Cocklebur” value (cocklebur; PREEMERGENCE, Rate 50 g/ha) was 0 and the “Plant response rating (0 to 10 scale), Cocklebur” value (cocklebur; PREEMERGENCE, Rate 200 g/ha) was 0. The “Plant response rating, Cocklebur” value (cocklebur; Rate 200 g/ha, POSTEMERGENCE) was 10, the “Plant response rating, Corn” value (corn; POSTEMERGENCE, Rate 50 g/ha) was 2 and the “Plant response rating, Corn” value (corn; PREEMERGENCE, Rate 50 g/ha) was 0. The “Plant response rating (0 to 10 scale), Corn” value (corn; PREEMERGENCE, Rate 200 g/ha) was 0, the “Plant response rating, Corn” value (corn; Rate 200 g/ha, POSTEMERGENCE) was 4 and the “Plant response rating, Cotton” value (cotton; POSTEMERGENCE, Rate 50 g/ha) was 10. The “Plant response rating, Cotton” value (cotton; PREEMERGENCE, Rate 50 g/ha) was 0, the “Plant response rating (0 to 10 scale), Cotton” value (cotton; PREEMERGENCE, Rate 200 g/ha) was 0 and the “Plant response rating, Cotton” value (cotton; Rate 200 g/ha, POSTEMERGENCE) was 10. For the same compound, the “Plant response rating, Crabgrass” value (crabgrass; POSTEMERGENCE, Rate 50 g/ha) was 3, the “Plant response rating, Crabgrass” value (crabgrass; PREEMERGENCE, Rate 50 g/ha) was 2 and the “Plant response rating (0 to 10 scale), Crabgrass” value (crabgrass; PREEMERGENCE, Rate 200 g/ha) was 6. For the same compound, the “Plant response rating, Crabgrass” value (crabgrass; Rate 200 g/ha, POSTEMERGENCE) was 5, the “Plant response rating, Giant foxtail” value (giant foxtail; POSTEMERGENCE, Rate 50 g/ha) was 5 and the “Plant response rating, Giant foxtail” value (giant foxtail; PREEMERGENCE, Rate 50 g/ha) was 2. For the same compound, the “Plant response rating (0 to 10 scale), Giant foxtail” value (giant foxtail; PREEMERGENCE, Rate 200 g/ha) was 6, the “Plant response rating, Giant foxtail” value (giant foxtail; Rate 200 g/ha, POSTEMERGENCE) was 5 and the “Plant response rating, Lambsquarter” value (lambsquarters; POSTEMERGENCE, Rate 50 g/ha) was 9. The “Plant response rating, Lambsquarter” value (lambsquarters; PREEMERGENCE, Rate 50 g/ha) was 9, the “Plant response rating (0 to 10 scale), Lambsquarter” value (lambsquarters; PREEMERGENCE, Rate 200 g/ha) was 10 and the “Plant response rating, Lambsquarter” value (lambsquarters; Rate 200 g/ha, POSTEMERGENCE) was 10. The “Plant response rating, Morningglory” value (morningglory; POSTEMERGENCE, Rate 50 g/ha) was 9, the “Plant response rating, Morningglory” value (morningglory; PREEMERGENCE, Rate 50 g/ha) was 0 and the “Plant response rating (0 to 10 scale), Morningglory” value (morningglory; PREEMERGENCE, Rate 200 g/ha) was 0. The “Plant response rating, Morningglory” value (morningglory; Rate 200 g/ha, POSTEMERGENCE) was 9, the “Plant response rating, Rape” value (rape; POSTEMERGENCE, Rate 50 g/ha) was 10 and the “Plant response rating, Rape” value (rape; PREEMERGENCE, Rate 50 g/ha) was 0. The “Plant response rating (0 to 10 scale), Rape” value (rape; PREEMERGENCE, Rate 200 g/ha) was 7, the “Plant response rating, Rape” value (rape; Rate 200 g/ha, POSTEMERGENCE) was 10 and the “Plant response rating, Rice” value (rice; POSTEMERGENCE, Rate 50 g/ha) was 3. For the same compound, the “Plant response rating, Rice” value (rice; PREEMERGENCE, Rate 50 g/ha) was 0, the “Plant response rating (0 to 10 scale), Rice” value (rice; PREEMERGENCE, Rate 200 g/ha) was 0 and the “Plant response rating, Rice” value (rice; Rate 200 g/ha, POSTEMERGENCE) was 6. The “Plant response rating, Sorghum” value (sorghum; POSTEMERGENCE, Rate 50 g/ha) was 5, the “Plant response rating, Sorghum” value (sorghum; PREEMERGENCE, Rate 50 g/ha) was 0 and the “Plant response rating (0 to 10 scale), Sorghum” value (sorghum; PREEMERGENCE, Rate 200 g/ha) was 0. The “Plant response rating, Sorghum” value (sorghum; Rate 200 g/ha, POSTEMERGENCE) was 7, the “Plant response rating, Soybean” value (soybean; POSTEMERGENCE, Rate 50 g/ha) was 6 and the “Plant response rating, Soybean” value (soybean; PREEMERGENCE, Rate 50 g/ha) was 0. The “Plant response rating (0 to 10 scale), Soybean” value (soybean; PREEMERGENCE, Rate 200 g/ha) was 0, the “Plant response rating, Soybean” value (soybean; Rate 200 g/ha, POSTEMERGENCE) was 6 and the “Plant response rating, Sugar beet” value (sugar beet; POSTEMERGENCE, Rate 50 g/ha) was 10. For the same compound, the “Plant response rating, Sugar beet” value (sugar beet; PREEMERGENCE, Rate 50 g/ha) was 0, the “Plant response rating (0 to 10 scale), Sugar beet” value (sugar beet; PREEMERGENCE, Rate 200 g/ha) was 10 and the “Plant response rating, Sugar beet” value (sugar beet; Rate 200 g/ha, POSTEMERGENCE) was 10. For the same compound, the “Plant response rating, Velvetleaf” value (velvetleaf; POSTEMERGENCE, Rate 50 g/ha) was 10, the “Plant response rating, Velvetleaf” value (velvetleaf; PREEMERGENCE, Rate 50 g/ha) was 5 and the “Plant response rating (0 to 10 scale), Velvetleaf” value (velvetleaf; PREEMERGENCE, Rate 200 g/ha) was 9. The “Plant response rating, Velvetleaf” value (velvetleaf; Rate 200 g/ha, POSTEMERGENCE) was 10, the “Plant response rating, Wheat” value (wheat; POSTEMERGENCE, Rate 50 g/ha) was 4 and the “Plant response rating, Wheat” value (wheat; PREEMERGENCE, Rate 50 g/ha) was 0. The “Plant response rating (0 to 10 scale), Wheat” value (wheat; PREEMERGENCE, Rate 200 g/ha) was 0, the “Plant response rating, Wheat” value (wheat; Rate 200 g/ha, POSTEMERGENCE) was 5 and the “Plant response rating, Wild buckwheat” value (wild buckwheat; POSTEMERGENCE, Rate 50 g/ha) was 10. The “Plant response rating, Wild buckwheat” value (wild buckwheat; PREEMERGENCE, Rate 50 g/ha) was 5, the “Plant response rating (0 to 10 scale), Wild buckwheat” value (wild buckwheat; PREEMERGENCE, Rate 200 g/ha) was 9 and the “Plant response rating, Wild buckwheat” value (wild buckwheat; Rate 200 g/ha, POSTEMERGENCE) was 10. The “Plant response rating, Wild oat” value (wild oat; POSTEMERGENCE, Rate 50 g/ha) was 4, the “Plant response rating, Wild oat” value (wild oat; PREEMERGENCE, Rate 50 g/ha) was 0 and the “Plant response rating (0 to 10 scale), Wild oat” value (wild oat; PREEMERGENCE, Rate 200 g/ha) was 3. The “Plant response rating, Wild oat” value (wild oat; Rate 200 g/ha, POSTEMERGENCE) was 4, the “Plant response rating, Nutsedge” value (purple nutsedge; POSTEMERGENCE, Rate 50 g/ha) was 2 and the “Plant response rating, Nutsedge” value (purple nutsedge; PREEMERGENCE, Rate 50 g/ha) was 0. For the same compound, the “Plant response rating (0 to 10 scale), Nutsedge” value (purple nutsedge; PREEMERGENCE, Rate 200 g/ha) was 0 and the “Plant response rating, Nutsedge” value (purple nutsedge; Rate 200 g/ha, POSTEMERGENCE) was 2.
